Source: patent US20180117006A1, “ANTI-FUGETACTIC AGENT AND IMMUNOTHERAPY AGENT COMBINATION THERAPY AND COMPOSITIONS FOR THE TREATMENT OF CANCER” (THE GENERAL HOSPITAL CORPORATION, priority 2015, published 2018)

Tested on: tumor that expresses high levels of CXCL12
Assay: Tumor growth in mice with a subcutaneous CXCL12-expressing tumor
Type: in vivo
Conditions: AMD3100 subcutaneous once a day for 5 days, then NK-92 cells intraperitoneal one to three days after the final dose, contemplated synergistic effect
Procedure: Mice are injected with tumor cells (subcutaneous injection) from a tumor that expresses high levels of CXCL12 and a tumor allowed to develop. Once the tumor has formed, the mice are injected (subcutaneous in the same flank as the tumor) with AMD3100 or vehicle, once a day for 5 days.
One to three days after the final dose of AMD3100, mice are injected via intraperitoneal injection with NK-92 cells or vehicle 18 hours prior to assay of tumor growth. Tumor growth in mice is delayed by NK-92 cell treatment, but resumes soon after the treatment is discontinued in mice that were not administered AMD3100.

SMILES: c1cc(CN2CCCNCCNCCCNCC2)ccc1CN1CCCNCCNCCCNCC1 [AMD3100]
- Delay in tumor growth (co-treatment): longer than NK-92 cells alone
